Consider 1 compound from US20220226283A1, “COMBINATION PRODUCT CONTAINING LIMONOID COMPOUND AND DPP-4 INHIBITOR” (ZHEJIANG YANGSHENGTANG INSTITUTE OF NATURAL MEDICATION CO., …, priority 2019, published 2022).

The subject of the assay is mouse model of type II diabetes with pancreatic islet damage and obesity (ICR mice, STZ and high-fat diet). The experiment in a line: Blood glucose in mouse type II diabetes model with pancreatic islet damage and obesity (limonoid compound, alogliptin or combination). The settings on record: single administration 0.5 g/kg per day by gavage, two weeks, 1 h after the last administration, mean ± SD. Type of assay: in vivo. The text has this: In this example, a mouse model of type II diabetes with pancreatic islet damage and obesity was established by multiple modeling ICR mice with a small dose of streptozotocin (STZ), following with continuous high-fat diets (referring to literature: Zhang Jiyuan et al, Study on the effect of three plant extracts on improving glucose and lipid metabolism in type 2 diabetic mice, Food and Machinery, 2016, 32 (12): 142-147). […]
Experimental grouping: 15 male mice were randomly selected as the normal control group, and the remaining mice were subjected to a high-fat diet (high-fat diet formula: cholesterol 1%, egg yolk powder 10%, lard oil 10%, and basic feed 79%, for establishing an obesity mouse model) for consecutive 4 weeks and intraperitoneal injection of STZ at a dose of 35 mg/kg for three consecutive days. After one week, the mice were subject to 24 hours of fasting and water deprivation, their fasting blood glucose was measured, and the mice with a blood glucose level of 15 to 25 mmol/L were selected and undifferentiatedly grouped and used in the experiment, continuously subjected to the high-fat diet, 15 mice in each group, and subjected to blood sampling and detection of indicators after 2 weeks of administration. […]

SMILES strings stand for the structures.

For `Cn1c(=O)cc(N2CCC[C@@H](N)C2)n(Cc2ccccc2C#N)c1=O` [Alogliptin, alogliptin], the Blood glucose value was determined as 14.5 ± 2.8 mmol/L.
